Reference: patent US7608726B2, “Substituted indolepyridinium as anti-infective compounds” (Tibotec Pharmaceuticals Ltd., priority 2002, dated 2009)

Assays:
HIV mutant B (K103N) = test: Antiviral cellular assay, mutant HIV strain B; assay type: cell-based; details: EC50 mutant/EC50 wild type, rounded to nearest integer
Method: (§1) HIV- or mock-infected MT4 cells were incubated for five days in the presence of various concentrations of the inhibitor. At the end of the incubation period, the replicating virus in the control cultures has killed all HIV-infected cells in the absence of any inhibitor. Cell viability was determined by measuring the concentration of MTT, a yellow, water soluble tetrazolium dye that is converted to a purple, water insoluble formazan in the mitochondria of living cells only. Upon solubilization of the resulting formazan crystals with isopropanol, the absorbance of the solution was monitored at 540 nm. The values correlate directly to the number of living cells remaining in the culture at the completion of the five day incubation. The inhibitory activity of the compound was monitored on the virus-infected cells and was expressed as EC50 and EC90. These values represent the amount of the compound required to protect 50% and 90%, respectively, of the cells from the cytopathogenic effect of the virus. […] Wherever results are reported as e.g. pEC50 or pCC50 values, the result is expressed as the negative logarithm of the result expressed as EC50 or CC50 respectively. […]
(§2) Row WT: pEC50 against wild type HIV-LAI strain. The toxicity (Tox) is expressed as the pCC50 value as determined with mock transfected cells. ND means not determined.

HIV-2 = test: Antiviral cellular assay, HIV-2; assay type: cell-based; details: Human immunodeficiency virus 2; read-out: pEC50 towards HIV-2 (converted)
Method: HIV- or mock-infected MT4 cells were incubated for five days in the presence of various concentrations of the inhibitor. At the end of the incubation period, the replicating virus in the control cultures has killed all HIV-infected cells in the absence of any inhibitor. Cell viability was determined by measuring the concentration of MTT, a yellow, water soluble tetrazolium dye that is converted to a purple, water insoluble formazan in the mitochondria of living cells only. Upon solubilization of the resulting formazan crystals with isopropanol, the absorbance of the solution was monitored at 540 nm. The values correlate directly to the number of living cells remaining in the culture at the completion of the five day incubation. The inhibitory activity of the compound was monitored on the virus-infected cells and was expressed as EC50 and EC90. These values represent the amount of the compound required to protect 50% and 90%, respectively, of the cells from the cytopathogenic effect of the virus. […] Wherever results are reported as e.g. pEC50 or pCC50 values, the result is expressed as the negative logarithm of the result expressed as EC50 or CC50 respectively.
as §2

HIV mutant A (Y181C) = test: Antiviral cellular assay, mutant HIV strain A; assay type: cell-based; details: EC50 mutant/EC50 wild type, rounded to nearest integer
Method: as §1, §2

HIV mutant F (Y188L) = test: Antiviral cellular assay, mutant HIV strain F; assay type: cell-based; details: EC50 mutant/EC50 wild type, rounded to nearest integer
Method: as §1, §2

[1] = system: HIV mutant I (K101E, K103N); test: Antiviral cellular assay, mutant HIV strain I; assay type: cell-based; details: EC50 mutant/EC50 wild type, rounded to nearest integer
Method: as §1, §2

[2] = system: HIV mutant C (L100I; K103N); test: Antiviral cellular assay, mutant HIV strain C; assay type: cell-based; details: EC50 mutant/EC50 wild type, rounded to nearest integer
Method: as §1, §2

[3] = system: HIV mutant G (V106A, F227L); test: Antiviral cellular assay, mutant HIV strain G; assay type: cell-based; details: EC50 mutant/EC50 wild type, rounded to nearest integer
Method: as §1, §2

[4] = system: SIV (simian immunodeficiency virus); test: Antiviral cellular assay, SIV; assay type: cell-based; details: read-out: pEC50 towards SIV (converted)
[5] = system: HIV mutant K (multiple RT mutations, Table 1); test: Antiviral cellular assay, mutant HIV strain K; assay type: cell-based; details: EC50 mutant/EC50 wild type, rounded to nearest integer
Method: as §1, §2

[6] = system: HIV mutant D (L100I; K103N); test: Antiviral cellular assay, mutant HIV strain D; assay type: cell-based; details: EC50 mutant/EC50 wild type, rounded to nearest integer
Method: as §1, §2

HIV mutant E (F227C) = test: Antiviral cellular assay, mutant HIV strain E; assay type: cell-based; details: EC50 mutant/EC50 wild type, rounded to nearest integer
Method: as §1, §2

[7] = system: HIV mutant H (K103N, Y181C); test: Antiviral cellular assay, mutant HIV strain H; assay type: cell-based; details: EC50 mutant/EC50 wild type, rounded to nearest integer
Method: as §1, §2

[8] = system: HIV mutant J (131L, L100I, K103N, E138G, Y181C, L214F); test: Antiviral cellular assay, mutant HIV strain J; assay type: cell-based; details: EC50 mutant/EC50 wild type, rounded to nearest integer
Method: as §1, §2

Mycobacterium b. = test: Specificity versus non-viral pathogens: Mycobacterium b.; assay type: cell-based
[9] = Microsomal metabolization, human liver microsomes; assay type: in vitro ADME; details: for hepatic first pass metabolization (microsomal): liver microsomal fractions
Method: Aliquots of human liver microsomal fractions (prepared by centrifugation at 12000 g^−1) were transferred into 10 ml glass tubes that are immersed in ice. Subsequently, test compound was added to yield a final concentration of 10 μM test compound. After adding 500 μl of a co-factor solution (cofactor solution: 1 mg/ml glucose-6-phosphate, 1 mg/ml MgCl2.6H2O, 0.5 units/ml glucose-6-phosphate dehydrogenase in 0.5 M phohsphate buffer. pH 7.4), homogenisation buffer (homogenisation buffer: 1,15% KCl in 0.05 M phosphate buffer, pH 7.4) was added to give a final volume of 1 ml. The incubations, 30 or 120 minutes at 37° C., were initiated by adding 10 μl of a solution of nicontinamide adenine dinucleotide phosphate (1.25 mg/ml) in homogenisation buffer. After a preincubation during 5 minutes at 37° C., the tubes were continuously shaken at 100 oscillations/minute in a water bath. The reactions were terminated by addition of an equal volume of DMSO. Blank incubations containing boiled microsomal fractions were incubated under the same conditions as the drug incubations. The degree of metabolism was determined by direct measurement of the residual parent compound in the reaction mixture using LC-MS. In parallel, the residual anti-HIV activity in the reaction mixture was detected using a colorimetric anti-HIV assay as described in Pauwels et al. J. Virol. Methods 1988 (20) 309-321. The residual activity is defined as the percent difference in EC50 between the drug incubations and the blank incubations.
The amount of compound was determined using LC-MS at the time points indicated between brackets. The results are indicated as a % vis-à-vis the amount determined at the start of the experiment (time=0; normalized to 100%).

[10] = system: HIV-1 strain LAI in MT4 cells; test: Time of addition experiment (p24 ELISA); assay type: cell-based; details: 50 μM, MT4 cells infected with HIV-1 LAI
Method: A time of addition experiment was performed to determine the mechanism of action of the compounds of the present invention. In the time of addition experiment, compounds are added to cells that were infected with HIV, at time zero (Zero hours). The compounds are subsequently added at different points in time. The time point until which a compound can be added to prevent virus replication, provides an indication of the mechanism of action of the compound.
In the present experiment, MT4 cells were infected with HIV-1 strain LAI at time zero. In different experiments, compounds were subsequently added at the points in time indicated in the X-axis of FIG. 1 (in hours). The compounds were added at the following end concentrations during incubation: DS5000, 1 μM; efavirenz (EFV), 1 μM; saquinavir (SQV), 1 μM; Reference 1, 10 μM (Reference 1 is an integrase inhibitor selected from WO 99/62520 and is present in CAS database: 251963-93-6); Compound 2, 50 μM; Control: normalized virus production. The virus production was determined using p24 monitoring using a kit according to the manufacturers instructions (p24 ELISA kit, catalog reference NEK-050, Perkin Elmer).

[11] = Microsomal metabolization, dog liver microsomes; assay type: in vitro ADME; details: 10 μM, LC-MS
[12] = target: T1, HIV reverse transcriptase (Human immunodeficiency virus type 1 group M subtype B, UniProt P04585); test: In vitro inhibition of HIV reverse transcriptase (kit TRK 1022); assay type: biochemical; details: enzyme assay, 4 hours at 37° C.
T1 construct: 5 μl HIV RT enzyme solution; purchased Amersham Life Sciences TRK 1022
Method: The assay was run using kit TRK 1022 (Amersham Life Sciences) according to the manufacturer's instructions with slight modifications. Compounds were diluted in steps of ¼ in 100% DMSO and subsequently transferred to Medium A (1/50 dilution; medium A: RPMI 1640+10% FetalClone II+Gentamycin 20 mg/L). 25 μl of compound (in 2% DMSO in Medium A) or 25 μl of 2% DMSO in medium A was added to wells. To each well was added 25.5 μl master mix (master mix: 5 μl primer/template beads, 10 μl assay buffer, 0.5 μl tracer (3H-TTP), 5 μl HIV RT enzyme solution at a final enzyme activity of 15 mU per 50 μl reaction, 5 μl medium A). The plates were sealed, marked as radioactive and incubated during 4 hours at 37° C. Subsequently, 100 μl stop solution was added to each well (except R1). The radioactivity was counted in a TopCount.

wild type HIV-LAI strain = test: Antiviral cellular assay (MT4 cells, MTT), wild type HIV-1 strain LAI; assay type: cell-based; details: Human immunodeficiency virus 1, MT4; read-out: EC50, inhibition of wild-type HIV-LAI strain
Method: The compounds of the present invention were examined for anti-viral activity in a cellular assay. […] The cellular assay was performed according to the following procedure.
HIV- or mock-infected MT4 cells were incubated for five days in the presence of various concentrations of the inhibitor. At the end of the incubation period, the replicating virus in the control cultures has killed all HIV-infected cells in the absence of any inhibitor. Cell viability was determined by measuring the concentration of MTT, a yellow, water soluble tetrazolium dye that is converted to a purple, water insoluble formazan in the mitochondria of living cells only. Upon solubilization of the resulting formazan crystals with isopropanol, the absorbance of the solution was monitored at 540 nm. The values correlate directly to the number of living cells remaining in the culture at the completion of the five day incubation. The inhibitory activity of the compound was monitored on the virus-infected cells and was expressed as EC50 and EC90. These values represent the amount of the compound required to protect 50% and 90%, respectively, of the cells from the cytopathogenic effect of the virus. The toxicity of the compound was measured on the mock-infected cells and was expressed as CC50, which represents the concentration of compound required to inhibit the growth of the cells by 50%. The selectivity index (SI) (ratio CC50/EC50) is an indication of the selectivity of the anti-HIV activity of the inhibitor. Wherever results are reported as e.g. pEC50 or pCC50 values, the result is expressed as the negative logarithm of the result expressed as EC50 or CC50 respectively.
As a measure of the broad spectrum activity of the present compounds, the EC50 was determined. […] The fold resistance rounded to the nearest integer is mentioned between brackets.
as §2

SMILES | fold resistance mutant B (between brackets) (HIV mutant B (K103N)) | EC50 (HIV-2) | fold resistance mutant A (between brackets) (HIV mutant A (Y181C)) | fold resistance mutant F (between brackets) (HIV mutant F (Y188L)) | fold resistance mutant I (between brackets) [1] | fold resistance mutant C (between brackets) [2] | fold resistance mutant G (between brackets) [3] | EC50 [4] | fold resistance mutant K (between brackets) [5] | fold resistance mutant D (between brackets) [6] | fold resistance mutant E (between brackets) (HIV mutant E (F227C)) | fold resistance mutant H (between brackets) [7] | fold resistance mutant J (between brackets) [8] | hepatic first pass metabolization (microsomal) [9] | EC50 (wild type HIV-LAI strain) | other results
N#Cc1cc2[nH]c3ccccc3c2n(-c2ccc([N+](=O)[O-])cc2)c1=O [Compound 1, 1-(4-nitrophenyl)-2-oxo-2,5-dihydro-1H-pyrido[3,2-b]indole-3-carbonitrile] | 4 | 6.31 µM | 8 | 4 | 3 | 8 | 2 | 7.94 µM | 1 | 3 | 6 | 5 | 5 |  |  | 
Cn1c2ccccc2c2c1cc(C#N)c(=O)n2-c1ccc([N+](=O)[O-])cc1 [Compound 2, 5-methyl-1-(4-nitro-phenyl)-2-oxo-2,5-dihydro-1H-pyrido[3,2-b]indole-3-carbonitrile] | 1 | 0.251 µM | 4 | 2 | 3 | 3 | 3 | 0.316 µM | 4 | 2 | 3 | 5 | 5 | little or no hepatic first pass metabolization |  | EC50 (Mycobacterium b.): > 32 µM; HLM (0 min) amount of compound ([9]; 10 μM, 0 min, LC-MS, normalized to 100% at time 0): 100%; HLM (30 min) amount of compound ([9]; 10 μM, 30 min, LC-MS, % of amount at time 0): 98%; HLM (120 min) amount of compound ([9]; 10 μM, 120 min, LC-MS, % of amount at time 0): 128%; time of addition: effect on virus production / mechanism [10]: delayed virus production using a mechanism related to reverse transcriptase; DLM (0 min) amount of compound ([11]; 0 min, normalized to 100% at time 0): 100%; DLM (30 min) amount of compound ([11]; 30 min, % of amount at time 0): 91%; DLM (120 min) amount of compound ([11]; 120 min, % of amount at time 0): 108%; in vitro inhibition of HIV reverse transcriptase [12]: inhibits HIV reverse transcriptase in vitro
N#Cc1cc2c(c3ccccc3n2CCN2CCCC2)n(-c2ccc([N+](=O)[O-])cc2)c1=O [Compound 13, 1-(4-Nitro-phenyl)-2-oxo-5-(2-pyrrolidin-1-yl-ethyl)-2,5-dihydro-1H-pyrido[3,2-b]-indole-3-carbonitrile] |  |  |  |  |  |  |  |  |  |  |  |  |  | little or no hepatic first pass metabolization | < 1 µM | 
Cn1c2ccccc2c2c1cc(-c1noc(C(F)(F)F)n1)c(=O)n2-c1ccc([N+](=O)[O-])cc1 [Compound 72, 5-Methyl-1-(4-nitro-phenyl)-3-(5-trifluoromethyl-[1,2,4]oxadiazol-3-yl)-1,5-dihydropyrido[3,2-b]indol-2-one] |  |  |  |  |  |  |  |  |  |  |  |  |  |  | < 1 µM | 
Cn1c2ccccc2c2c1cc(C(N)=O)c(=O)n2-c1ccc([N+](=O)[O-])cc1 [Compound 76] |  |  |  |  |  |  |  |  |  |  |  |  |  |  | 1 to 32 µM | 
